According to US20260092071A1, “COMPOUNDS AND COMPOSITIONS AS SMARCA2/4 DEGRADERS AND USES THEREOF” (REGENTS OF THE UNIVERSITY OF MICHIGAN, priority 2022, published 2026):

What was measured:
SMARCA2 = SMARCA2 (Homo sapiens, UniProt P51531); test: HiBit assay in engineered HT1080 CRISPR knock-in cell, 6 hrs (B series), SMARCA2; assay type: cell-based; details: 6 hrs incubation; for DC50: HT1080 CRISPR knock-in cells, read-out: SMARC A2 HT1080 HiBit DC50; for Dmax: HT-1080, HT1080 CRISPR knock-in cells, read-out: SMARC A2 HT1080 HiBit Dmax (%)
Method in brief: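 Remaining SMARCA2 protein measured as HiBiT luminescence after cell lysis with LgBiT plus lytic substrate. Engineered HT1080 knock-in cells (2000/well) were first treated 6 h at 37 °C with compound at a final 0.1% DMSO.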

SMARCA4 = SMARCA4 (Homo sapiens, UniProt P51532); test: HiBit assay in engineered HT1080 CRISPR knock-in cell, 6 hrs (B series), SMARCA4; assay type: cell-based; details: 6 hrs incubation; for DC50: HT1080 CRISPR knock-in cells, read-out: SMARC A4 HT1080 HiBit DC50; for Dmax: HT-1080, HT1080 CRISPR knock-in cells, read-out: SMARC A4 HT1080 HiBit Dmax(%)
Method in brief: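 Compounds were dispensed first, then HT1080 knock-in cells added and incubated for 6 hrs at 37° C. Next, detection reagent containing LgBiT and lytic substrate was added. Plates were shaken 10 min and centrifuged, and luminescence was measured.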

Sequence of SMARCA4 (P51532 whole entry): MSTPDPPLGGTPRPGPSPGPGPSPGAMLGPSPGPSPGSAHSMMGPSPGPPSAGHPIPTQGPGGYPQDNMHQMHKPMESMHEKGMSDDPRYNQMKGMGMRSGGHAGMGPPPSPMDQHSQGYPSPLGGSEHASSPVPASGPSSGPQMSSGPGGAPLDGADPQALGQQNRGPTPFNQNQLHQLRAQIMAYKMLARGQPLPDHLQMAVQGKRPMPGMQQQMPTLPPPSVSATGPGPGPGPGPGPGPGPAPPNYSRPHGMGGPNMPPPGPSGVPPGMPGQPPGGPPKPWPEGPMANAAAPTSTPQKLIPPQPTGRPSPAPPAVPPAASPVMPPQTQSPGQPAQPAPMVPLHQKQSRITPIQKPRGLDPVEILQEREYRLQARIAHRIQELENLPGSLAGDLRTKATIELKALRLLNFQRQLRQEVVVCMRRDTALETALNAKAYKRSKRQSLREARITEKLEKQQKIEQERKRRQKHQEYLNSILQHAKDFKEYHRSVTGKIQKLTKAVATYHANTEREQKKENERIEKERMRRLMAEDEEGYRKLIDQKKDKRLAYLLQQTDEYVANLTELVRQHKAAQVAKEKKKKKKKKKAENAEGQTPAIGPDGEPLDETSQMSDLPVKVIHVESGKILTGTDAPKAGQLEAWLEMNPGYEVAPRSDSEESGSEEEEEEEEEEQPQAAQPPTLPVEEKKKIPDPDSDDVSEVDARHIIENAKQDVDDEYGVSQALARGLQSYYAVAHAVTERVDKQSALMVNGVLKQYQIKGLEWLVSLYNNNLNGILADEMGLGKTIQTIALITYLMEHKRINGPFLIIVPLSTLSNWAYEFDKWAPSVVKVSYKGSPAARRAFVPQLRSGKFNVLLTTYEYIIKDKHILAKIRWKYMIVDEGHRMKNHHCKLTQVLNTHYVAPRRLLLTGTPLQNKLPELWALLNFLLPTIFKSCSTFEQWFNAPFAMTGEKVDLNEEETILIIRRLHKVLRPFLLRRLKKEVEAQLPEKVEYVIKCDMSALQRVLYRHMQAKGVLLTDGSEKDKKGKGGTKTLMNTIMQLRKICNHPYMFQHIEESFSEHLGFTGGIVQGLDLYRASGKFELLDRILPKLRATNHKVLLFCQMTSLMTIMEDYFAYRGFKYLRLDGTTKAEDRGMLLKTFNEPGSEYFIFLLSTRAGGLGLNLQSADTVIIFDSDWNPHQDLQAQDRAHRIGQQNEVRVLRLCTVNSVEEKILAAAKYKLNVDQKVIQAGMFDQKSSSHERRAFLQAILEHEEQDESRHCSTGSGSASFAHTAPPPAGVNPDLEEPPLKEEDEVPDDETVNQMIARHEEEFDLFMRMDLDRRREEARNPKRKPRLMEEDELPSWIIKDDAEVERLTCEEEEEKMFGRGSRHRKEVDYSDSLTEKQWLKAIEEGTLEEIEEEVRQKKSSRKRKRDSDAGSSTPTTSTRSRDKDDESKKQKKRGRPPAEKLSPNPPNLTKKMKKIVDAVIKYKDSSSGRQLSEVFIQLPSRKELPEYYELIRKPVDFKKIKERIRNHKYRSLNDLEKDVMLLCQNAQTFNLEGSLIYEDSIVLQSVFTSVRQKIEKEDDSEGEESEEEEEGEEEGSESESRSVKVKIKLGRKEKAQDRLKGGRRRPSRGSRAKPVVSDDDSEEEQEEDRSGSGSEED
Sequence of SMARCA2 (P51531 whole entry): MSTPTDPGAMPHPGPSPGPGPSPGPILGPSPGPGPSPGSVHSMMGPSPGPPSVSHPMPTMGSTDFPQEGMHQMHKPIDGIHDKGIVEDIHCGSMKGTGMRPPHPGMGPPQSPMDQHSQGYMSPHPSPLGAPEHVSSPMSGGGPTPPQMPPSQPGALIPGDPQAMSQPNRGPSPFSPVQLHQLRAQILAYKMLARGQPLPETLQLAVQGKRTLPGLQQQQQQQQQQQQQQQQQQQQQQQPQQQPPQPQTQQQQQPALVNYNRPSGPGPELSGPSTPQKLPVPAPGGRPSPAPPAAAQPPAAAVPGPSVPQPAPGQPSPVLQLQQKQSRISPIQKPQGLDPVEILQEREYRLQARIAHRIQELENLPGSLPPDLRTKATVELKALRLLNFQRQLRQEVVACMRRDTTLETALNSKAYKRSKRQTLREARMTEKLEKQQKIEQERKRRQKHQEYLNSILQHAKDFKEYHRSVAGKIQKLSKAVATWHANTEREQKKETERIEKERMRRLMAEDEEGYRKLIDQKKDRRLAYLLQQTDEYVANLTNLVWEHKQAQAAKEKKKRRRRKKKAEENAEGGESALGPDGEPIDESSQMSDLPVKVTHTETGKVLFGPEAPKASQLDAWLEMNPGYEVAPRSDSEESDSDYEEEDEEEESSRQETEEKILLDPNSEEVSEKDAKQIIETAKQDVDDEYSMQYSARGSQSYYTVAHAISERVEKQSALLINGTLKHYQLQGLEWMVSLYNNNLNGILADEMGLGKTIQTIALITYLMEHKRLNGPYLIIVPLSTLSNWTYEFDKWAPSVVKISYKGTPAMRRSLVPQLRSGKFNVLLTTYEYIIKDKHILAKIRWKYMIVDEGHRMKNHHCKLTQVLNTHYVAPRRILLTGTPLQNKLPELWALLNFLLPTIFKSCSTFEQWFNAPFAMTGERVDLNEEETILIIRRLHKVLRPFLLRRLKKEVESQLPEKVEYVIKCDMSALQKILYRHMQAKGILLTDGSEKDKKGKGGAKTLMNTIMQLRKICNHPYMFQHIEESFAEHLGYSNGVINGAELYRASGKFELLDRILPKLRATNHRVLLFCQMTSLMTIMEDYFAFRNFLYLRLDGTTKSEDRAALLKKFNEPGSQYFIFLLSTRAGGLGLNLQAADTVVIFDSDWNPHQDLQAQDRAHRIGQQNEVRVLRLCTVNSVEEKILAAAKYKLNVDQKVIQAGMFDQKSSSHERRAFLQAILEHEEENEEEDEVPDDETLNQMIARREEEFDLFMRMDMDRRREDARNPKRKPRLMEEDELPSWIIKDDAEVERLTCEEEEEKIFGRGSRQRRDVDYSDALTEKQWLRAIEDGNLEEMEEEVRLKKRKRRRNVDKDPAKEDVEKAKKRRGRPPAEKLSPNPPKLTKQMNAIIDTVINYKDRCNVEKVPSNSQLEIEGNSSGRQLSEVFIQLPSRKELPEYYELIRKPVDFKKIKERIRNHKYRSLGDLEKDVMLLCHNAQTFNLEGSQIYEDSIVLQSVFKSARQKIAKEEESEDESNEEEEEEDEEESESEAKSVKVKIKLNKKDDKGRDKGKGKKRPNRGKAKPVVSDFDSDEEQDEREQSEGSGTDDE

DC50 (SMARCA2) | Dmax (SMARCA2) | DC50 (SMARCA4) | Dmax (SMARCA4) | SMILES
< 0.1 µM | > 90% | < 0.1 µM | > 90% | Cc1ncsc1-c1ccc([C@H](C)NC(=O)[C@@H]2C[C@@H](O)CN2C(=O)[C@@H](c2cc(OC3CCC(CN4CCC(c5ccc6c(c5)C(C)(C)c5nc(=O)c7c(Cl)cccc7n5-6)CC4)CC3)no2)C(C)C)cc1 (stereo partly drawn) [Compound B30, (2S,4R)-1-((R)-2-(3-((4-((4-(4-chloro-7,7-dimethyl-5-oxo-5,7-dihydroindolo[1,2-a]quinazolin-9-yl)piperidin-1-yl)methyl)cyclohexyl)oxy)isoxazol-5-yl)-3-methylbutanoyl)-4-hydroxy-N-((S)-1-(4-(4-methylthiazol-5-yl)phenyl)ethyl)pyrrolidine-2-carboxamide]
< 0.1 µM | > 90% | < 0.1 µM | < 50% | Cc1ncsc1-c1ccc([C@H](C)NC(=O)[C@@H]2C[C@@H](O)CN2C(=O)[C@@H](c2cc(OCCN3CCC(c4ccc5c(c4)-n4c(nc(=O)c6c(Cl)cccc64)C5(C)C)CC3)no2)C(C)C)cc1 [Compound B32, (2S,4R)-1-((R)-2-(3-(2-(4-(4-chloro-7,7-dimethyl-5-oxo-5,7-dihydroindolo[1,2-a]quinazolin-10-yl)piperidin-1-yl)ethoxy)isoxazol-5-yl)-3-methylbutanoyl)-4-hydroxy-N-((S)-1-(4-(4-methylthiazol-5-yl)phenyl)ethyl)pyrrolidine-2-carboxamide]
> 1 µM | < 50% | > 1 µM | < 50% | Cc1ncsc1-c1ccc([C@H](CC(=O)NCCCCN2CCC(c3ccc4c(c3)-n3c(nc(=O)c5c(Cl)cccc53)C4(C)C)CC2)NC(=O)[C@@H]2C[C@@H](O)CN2C(=O)[C@@H](NC(=O)C2(F)CC2)C(C)(C)C)cc1 [Compound B33, (2S,4R)—N—((S)-3-((4-(4-(4-chloro-7,7-dimethyl-5-oxo-5,7-dihydroindolo[1,2-a]quinazolin-10-yl)piperidin-1-yl)butyl)amino)-1-(4-(4-methylthiazol-5-yl)phenyl)-3-oxopropyl)-1-((S)-2-(1-fluorocyclopropane-1-carboxamido)-3,3-dimethylbutanoyl)-4-hydroxypyrrolidine-2-carboxamide]
< 0.1 µM | > 90% | < 0.1 µM | 70 to 90% | Cc1ncsc1-c1ccc([C@H](C)NC(=O)[C@@H]2C[C@@H](O)CN2C(=O)[C@H](C(C)C)n2cc([C@H]3CC[C@H](CN4CCC(c5ccc6c(c5)-n5c(nc(=O)c7c(Cl)cccc75)C6(C)C)CC4)CC3)nn2)cc1 [Compound B41, (2S,4R)-1-((S)-2-(4-((1r,4S)-4-((4-(4-chloro-7,7-dimethyl-5-oxo-5,7-dihydroindolo[1,2-a]quinazolin-10-yl)piperidin-1-yl)methyl)cyclohexyl)-1H-1,2,3-triazol-1-yl)-3-methylbutanoyl)-4-hydroxy-N-((S)-1-(4-(4-methylthiazol-5-yl)phenyl)ethyl)pyrrolidine-2-carboxamide]
< 0.1 µM | > 90% | < 0.1 µM | 70 to 90% | Cc1ncsc1-c1ccc([C@H](C)NC(=O)[C@@H]2C[C@@H](O)CN2C(=O)C(c2cc(N3CCC(c4ccc5c(c4)C(C)(C)c4nc(=O)c6c(Cl)cccc6n4-5)CC3)no2)C(C)C)cc1 (stereo partly drawn) [Compound B42, (2S,4R)-1-(2-(3-(4-(4-chloro-7,7-dimethyl-5-oxo-5,7-dihydroindolo[1,2-a]quinazolin-9-yl)piperidin-1-yl)isoxazol-5-yl)-3-methylbutanoyl)-4-hydroxy-N—((S)-1-(4-(4-methylthiazol-5-yl)phenyl)ethyl)pyrrolidine-2-carboxamide]

The remaining lines, values behind:

SMILES | DC50 (SMARCA2) | Dmax (SMARCA2) | DC50 (SMARCA4) | Dmax (SMARCA4)
Cc1ncsc1-c1ccc([C@H](CC(=O)NC2CCC(N3CCC(c4ccc5c(c4)-n4c(nc(=O)c6c(Cl)cccc64)C5(C)C)CC3)CC2)NC(=O)[C@@H]2C[C@@H](O)CN2C(=O)[C@@H](NC(=O)C2(F)CC2)C(C)(C)C)cc1 (stereo partly drawn) [Compound B31, (2S,4R)—N—((S)-3-((4-(4-(4-chloro-7,7-dimethyl-5-oxo-5,7-dihydroindolo[1,2-a]quinazolin-10-yl)piperidin-1-yl)cyclohexyl)amino)-1-(4-(4-methylthiazol-5-yl)phenyl)-3-oxopropyl)-1-((S)-2-(1-fluorocyclopropane-1-carboxamido)-3,3-dimethylbutanoyl)-4-hydroxypyrrolidine-2-carboxamide] | 0.1 to 0.5 µM | 70 to 90% | 0.1 to 0.5 µM | < 50%
Cc1ncsc1-c1ccc(CNC(=O)[C@@H]2C[C@@H](O)CN2C(=O)[C@@H](NC(=O)C2(F)CC2)C(C)(C)C)c(OCCN2CCC(c3ccc4c(c3)-n3c(nc(=O)c5c(Cl)cccc53)C4(C)C)CC2)c1 [Compound B34, (2S,4R)-N-(2-(2-(4-(4-chloro-7,7-dimethyl-5-oxo-5,7-dihydroindolo[1,2-a]quinazolin-10-yl)piperidin-1-yl)ethoxy)-4-(4-methylthiazol-5-yl)benzyl)-1-((S)-2-(1-fluorocyclopropane-1-carboxamido)-3,3-dimethylbutanoyl)-4-hydroxypyrrolidine-2-carboxamide] | < 0.1 µM | > 90% | < 0.1 µM | > 90%
Cc1ncsc1-c1ccc(CNC(=O)[C@@H]2C[C@@H](O)CN2C(=O)[C@@H](NC(=O)C2(F)CC2)C(C)(C)C)c(OCCCCN2CCC(c3ccc4c(c3)-n3c(nc(=O)c5c(Cl)cccc53)C4(C)C)CC2)c1 [Compound B35, (2S,4R)—N-(2-(4-(4-(4-chloro-7,7-dimethyl-5-oxo-5,7-dihydroindolo[1,2-a]quinazolin-10-yl)piperidin-1-yl)butoxy)-4-(4-methylthiazol-5-yl)benzyl)-1-((S)-2-(1-fluorocyclopropane-1-carboxamido)-3,3-dimethylbutanoyl)-4-hydroxypyrrolidine-2-carboxamide] | < 0.1 µM | > 90% | < 0.1 µM | > 90%
Cc1ncsc1-c1ccc([C@H](C)NC(=O)[C@@H]2C[C@@H](O)CN2C(=O)[C@H](C(C)C)n2cc(CCN3CCC(c4ccc5c(c4)-n4c(nc(=O)c6c(Cl)cccc64)C5(C)C)CC3)nn2)cc1 [Compound B36, (2S,4R)-1-((S)-2-(4-(2-(4-(4-chloro-7,7-dimethyl-5-oxo-5,7-dihydroindolo[1,2-a]quinazolin-10-yl)piperidin-1-yl)ethyl)-1H-1,2,3-triazol-1-yl)-3-methylbutanoyl)-4-hydroxy-N-((S)-1-(4-(4-methylthiazol-5-yl)phenyl)ethyl)pyrrolidine-2-carboxamide] | < 0.1 µM | 70 to 90% | < 0.1 µM | < 50%
Cc1ncsc1-c1ccc([C@H](C)NC(=O)[C@@H]2C[C@@H](O)CN2C(=O)[C@@H](c2cc(N3CCC(CN4CCC(c5ccc6c(c5)-n5c(nc(=O)c7c(Cl)cccc75)C6(C)C)CC4)CC3)no2)C(C)C)cc1 [Compound B37, (2S,4R)-1-((R)-2-(3-(4-((4-(4-chloro-7,7-dimethyl-5-oxo-5,7-dihydroindolo[1,2-a]quinazolin-10-yl)piperidin-1-yl)methyl)piperidin-1-yl)isoxazol-5-yl)-3-methylbutanoyl)-4-hydroxy-N-((S)-1-(4-(4-methylthiazol-5-yl)phenyl)ethyl)pyrrolidine-2-carboxamide] | < 0.1 µM | > 90% | < 0.1 µM | 70 to 90%
Cc1ncsc1-c1ccc([C@H](C)NC(=O)[C@@H]2C[C@@H](O)CN2C(=O)[C@@H](c2cc(OC3CCC(CN4CCC(c5ccc6c(c5)-n5c(nc(=O)c7c(Cl)cccc75)C6(C)C)CC4)CC3)no2)C(C)C)cc1 (stereo partly drawn) [Compound B38, (2S,4R)-1-((R)-2-(3-((4-((4-(4-chloro-7,7-dimethyl-5-oxo-5,7-dihydroindolo[1,2-a]quinazolin-10-yl)piperidin-1-yl)methyl)cyclohexyl)oxy)isoxazol-5-yl)-3-methylbutanoyl)-4-hydroxy-N-((S)-1-(4-(4-methylthiazol-5-yl)phenyl)ethyl)pyrrolidine-2-carboxamide] | < 0.1 µM | > 90% | < 0.1 µM | 70 to 90%
Cc1ncsc1-c1ccc(CNC(=O)[C@@H]2C[C@@H](O)CN2C(=O)[C@@H](NC(=O)C2(F)CC2)C(C)(C)C)c(OCCCN2CCC(c3ccc4c(c3)-n3c(nc(=O)c5c(Cl)cccc53)C4(C)C)CC2)c1 [Compound B39, (2S,4R)-N-(2-(3-(4-(4-chloro-7,7-dimethyl-5-oxo-5,7-dihydroindolo[1,2-a]quinazolin-10-yl)piperidin-1-yl)propoxy)-4-(4-methylthiazol-5-yl)benzyl)-1-((S)-2-(1-fluorocyclopropane-1-carboxamido)-3,3-dimethylbutanoyl)-4-hydroxypyrrolidine-2-carboxamide] | < 0.1 µM | > 90% | < 0.1 µM | > 90%
Cc1ncsc1-c1ccc([C@H](C)NC(=O)[C@@H]2C[C@@H](O)CN2C(=O)[C@@H](NC(=O)[C@H]2CC[C@H](CN3CCC(c4ccc5c(c4)-n4c(nc(=O)c6c(Cl)cccc64)C5(C)C)CC3)CC2)C(C)(C)C)cc1 [Compound B40, (2S,4R)-1-((S)-2-((1r,4S)-4-((4-(4-chloro-7,7-dimethyl-5-oxo-5,7-dihydroindolo[1,2-a]quinazolin-10-yl)piperidin-1-yl)methyl)cyclohexane-1-carboxamido)-3,3-dimethylbutanoyl)-4-hydroxy-N-((S)-1-(4-(4-methylthiazol-5-yl)phenyl)ethyl)pyrrolidine-2-carboxamide] | < 0.1 µM | > 90% | 0.1 to 0.5 µM | < 50%
